Data as given in patent publication US20230192677A1, “CYP11A1 INHIBITORS” (ORION CORPORATION, priority 2020, published 2023).
pIC50: −log10 of the molar value.

target: T1, CYP11A1 (Homo sapiens, UniProt P05108); test: CYP11A1 inhibition, isocaproic acid release assay (IARA) in H295R cells; format: cell-based; details: human H295R adrenocortical carcinoma cell line, three days, 3 nM [24,25-3H]-labelled cholesterol; read-out: IC50 on CYP11A1 inhibition (Group)
T1 construct: human H295R adrenocortical carcinoma cell line was used as source of enzyme; endogenous in cells; host or cells: H295R human adrenocortical carcinoma cells
T1 sequence (P05108 40-521): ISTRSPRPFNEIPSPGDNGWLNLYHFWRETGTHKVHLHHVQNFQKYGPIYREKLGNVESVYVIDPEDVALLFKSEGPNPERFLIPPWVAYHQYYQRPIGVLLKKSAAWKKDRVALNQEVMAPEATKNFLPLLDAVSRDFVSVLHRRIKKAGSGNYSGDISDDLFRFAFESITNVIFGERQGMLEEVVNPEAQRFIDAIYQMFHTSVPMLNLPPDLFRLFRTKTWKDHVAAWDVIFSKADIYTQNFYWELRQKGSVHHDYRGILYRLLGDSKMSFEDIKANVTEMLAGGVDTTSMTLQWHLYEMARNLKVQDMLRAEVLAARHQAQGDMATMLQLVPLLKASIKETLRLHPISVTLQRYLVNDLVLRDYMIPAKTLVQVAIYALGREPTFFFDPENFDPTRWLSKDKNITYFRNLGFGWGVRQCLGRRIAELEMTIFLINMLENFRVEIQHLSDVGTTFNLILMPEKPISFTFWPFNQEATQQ
Experimental: The ability of the test compounds to inhibit conversion of cholesterol to pregnenolone and isocaproic acid was measured by modification of isocaproic acid release assay (IARA) described by Ruangwises et al. (Biology of Reproduction 1991; 45(1):143-50) except that human H295R adrenocortical carcinoma cell line was used as source of enzyme and extraction was done with dextran-coated charcoal suspension (Isomaa, V. et al., Endocrinology 1982; 111(3):833-843). […] To determine the half maximal inhibitory concentration (IC50) of the test compounds on CYP11A1 inhibition, the cells were treated for three days with increasing concentrations of the test compounds in the presence of 3 nM [24,25-3H]-labelled cholesterol (American Radiolabelled Chemicals). The final DMSO concentration was 1%. Cell culture medium was extracted with dextran-coated charcoal suspension and the radiolabelled isocaproic acid was determined by mixing 100 μl of supernatant fraction in 200 μl of scintillation fluid (OptiPhase SuperMix, Perkin Elmer). Radioactivity was measured using a Microbeta scintillation counter (1450 MicroBeta Trilux, Wallac). All the test compounds were studied at 10 concentrations in duplicates.

| SMILES | pIC50 |
| --- | --- |
| CS(=O)(=O)N1CCC(COc2coc(CN3Cc4ccc(-c5ncco5)cc4C3)cc2=O)CC1 [Compound 3, 5-((1-(Methylsulfonyl)piperidin-4-yl)methoxy)-2-((5-(oxazol-2-yl)isoindolin-2-yl)methyl)-4H-pyran-4-one] | > 7.00 |
| CS(=O)(=O)N1CCC(COc2coc(CN3Cc4ccc(-c5ccno5)cc4C3)cc2=O)CC1 [Compound 4, 2-((5-(Isoxazol-5-yl)isoindolin-2-yl)methyl)-5-((1-(methylsulfonyl)piperidin-4-yl)methoxy)-4H-pyran-4-one] | 6.70 to 7.00 |
| CS(=O)(=O)N1CCC(COc2coc(CN3Cc4ccc(-c5ccon5)cc4C3)cc2=O)CC1 [Compound 5, 2-((5-(Isoxazol-3-yl)isoindolin-2-yl)methyl)-5-((1-(methylsulfonyl)piperidin-4-yl)methoxy)-4H-pyran-4-one] | > 7.00 |
| CS(=O)(=O)N1CCC(COc2coc(CN3Cc4ccc(-c5nncs5)cc4C3)cc2=O)CC1 [Compound 6, 2-((5-(1,3,4-Thiadiazol-2-yl)isoindolin-2-yl)methyl)-5-((1-(methylsulfonyl)-piperidin-4-yl)methoxy)-4H-pyran-4-one] | 6.70 to 7.00 |
| CS(=O)(=O)c1cc(CN2Cc3ccc(-c4cnco4)cc3C2)ccc1OCC1CCN(S(C)(=O)=O)CC1 [Compound 13a, 5-(2-(3-(Methylsulfonyl)-4-((1-(methylsulfonyl)piperidin-4-yl)methoxy)-benzyl)isoindolin-5-yl)oxazole] | 6.70 to 7.00 |
| CS(=O)(=O)c1cc(CN2Cc3ccc(-c4ncco4)cc3C2)ccc1OCC1CCN(S(C)(=O)=O)CC1 [Compound 13b, 2-(2-(3-(Methylsulfonyl)-4-((1-(methylsulfonyl)piperidin-4-yl)methoxy)-benzyl)isoindolin-5-yl)oxazole] | > 7.00 |
| CS(=O)(=O)c1cc(CN2Cc3ccc(-c4cncs4)cc3C2)ccc1OCC1CCN(S(C)(=O)=O)CC1 [Compound 14, 5-(2-(3-(Methylsulfonyl)-4-((1-(methylsulfonyl)piperidin-4-yl)methoxy)benzyl)-isoindolin-5-yl)thiazole] | > 7.00 |
| CS(=O)(=O)N1CCC(COc2coc(C(N3Cc4ccccc4C3)C(F)(F)F)cc2=O)CC1 (stereo not shown) [Compound 20, 5-((1-(Methylsulfonyl)piperidin-4-yl)methoxy)-2-(2,2,2-trifluoro-1-(isoindolin-2-yl)ethyl)-4H-pyran-4-one] | 5.70 to 6.70 |
| CS(=O)(=O)c1cc(C(N2Cc3ccccc3C2)C(F)(F)F)ccc1OCC1CCN(S(C)(=O)=O)CC1 (stereo not shown) [Compound 21, 2-(2,2,2-Trifluoro-1-(3-(methylsulfonyl)-4-((1-(methylsulfonyl)piperidin-4-yl)methoxy)phenyl)ethyl)isoindoline] | 6.70 to 7.00 |
| CS(=O)(=O)N1CCC(COc2ccc(CN3Cc4ccccc4C3)cc2S(=O)(=O)C2CC2)CC1 [Compound 26, 2-(3-(Cyclopropylsulfonyl)-4-((1-(methylsulfonyl)piperidin-4-yl)methoxy)-benzyl)isoindoline] | 6.70 to 7.00 |
| CCS(=O)(=O)c1cc(CN2Cc3ccc(C(F)(F)F)cc3C2)ccc1OCC1CCN(S(C)(=O)=O)CC1 [Compound 27, 2-(3-(Ethylsulfonyl)-4-((1-(methylsulfonyl)piperidin-4-yl)methoxy)benzyl)-5-(trifluoromethyl)isoindoline] | > 7.00 |
| CCCCS(=O)(=O)c1cc(CN2Cc3ccccc3C2)ccc1OCC1CCN(S(C)(=O)=O)CC1 [Compound 28, 2-(3-(Butylsulfonyl)-4-((1-(methylsulfonyl)piperidin-4-yl)methoxy)benzyl)iso-indoline] | > 7.00 |
| CC(C)(C)OC(=O)N1CCC2(CC1)CC(Oc1coc(CN3CCc4ccccc4C3)cc1=O)C2 [Compound 32, tert-Butyl 2-((6-((3,4-dihydroisoquinolin-2(1H)-yl)methyl)-4-oxo-4H-pyran-3-yl)oxy)-7-azaspiro[3.5]nonane-7-carboxylate] | 6.70 to 7.00 |
